Where two headings read alike, the source gives them in different places.
Tests used:
HCoV-OC43 Mpro = HCoV-OC43 Mpro (Human coronavirus OC43, UniProt P0C6X6); test: HCoV-OC43 Mpro enzymatic inhibition assay (fluorescence); format: biochemical
Procedure, shortened: (§1)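 Steps: compound dilution series (3-fold, 10 doses) dispensed; Mpro added and pre-incubated 30 min at room temperature; substrate added; plates incubated 60 min at 30 °C; fluorescence measured at Ex/Em=340 nm/490 nm.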

SARS-CoV-1 Mpro = SARS-CoV-1 Mpro (Severe acute respiratory syndrome coronavirus, UniProt P0C6X7); test: biochemical
MERS Mpro = MERS Mpro (Middle East respiratory syndrome-related coronavirus, UniProt K9N7C7); test: biochemical; set-up: species or system MERS-CoV
SARS-CoV-2 Mpro = SARS-CoV-2 Mpro (Severe acute respiratory syndrome coronavirus 2, UniProt P0DTD1); test: SARS-CoV-2 Mpro enzymatic inhibition assay (fluorescence); format: biochemical
Procedure, shortened: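 Recombinant Mpro expressed in E. coli was preincubated 30 min at room temperature with 10-point, 3-fold serially diluted compound in duplicate. Fluorogenic substrate was then added and incubated 60 min at 30° C, and fluorescence read at Ex/Em 340/490 nm. IC50 came from a four-parameter fit of % inhibition.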

HCoV-NL63 Mpro = HCoV-NL63 Mpro (Human coronavirus NL63, UniProt P0C6X5); test: HCoV-NL63 Mpro enzymatic inhibition assay (fluorescence); format: biochemical
Procedure, shortened: as §1

HCoV-229E Mpro = HCoV-229E Mpro (Human coronavirus 229E, UniProt P0C6X1); test: HCoV-229E Mpro enzymatic inhibition assay (fluorescence); format: biochemical
HCoV-HKU1 Mpro = HCoV-HKU1 Mpro (Human coronavirus HKU1, UniProt P0C6X2); test: HCoV-HKU1 Mpro enzymatic inhibition assay (fluorescence); format: biochemical
Procedure, shortened: as §1

[1] = mean, 25 nM protein, 25 μM substrate, 30 min pre-incubation, 60 min at 30° C., read-out: Mpro_SARS-CoV-2 mean IC50

HCoV-HKU1 Mpro, sequence (P0C6X2 3335-3637 limits assumed): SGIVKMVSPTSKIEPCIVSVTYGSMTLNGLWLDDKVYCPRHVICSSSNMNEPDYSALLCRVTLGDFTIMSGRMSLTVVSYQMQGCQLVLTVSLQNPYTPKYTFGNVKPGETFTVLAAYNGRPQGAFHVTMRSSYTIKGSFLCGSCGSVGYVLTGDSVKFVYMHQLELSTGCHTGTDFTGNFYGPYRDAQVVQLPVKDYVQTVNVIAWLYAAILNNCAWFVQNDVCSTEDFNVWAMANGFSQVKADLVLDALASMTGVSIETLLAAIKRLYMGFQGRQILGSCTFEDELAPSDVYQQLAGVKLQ
HCoV-NL63 Mpro, sequence (P0C6X5 2940-3242 limits assumed): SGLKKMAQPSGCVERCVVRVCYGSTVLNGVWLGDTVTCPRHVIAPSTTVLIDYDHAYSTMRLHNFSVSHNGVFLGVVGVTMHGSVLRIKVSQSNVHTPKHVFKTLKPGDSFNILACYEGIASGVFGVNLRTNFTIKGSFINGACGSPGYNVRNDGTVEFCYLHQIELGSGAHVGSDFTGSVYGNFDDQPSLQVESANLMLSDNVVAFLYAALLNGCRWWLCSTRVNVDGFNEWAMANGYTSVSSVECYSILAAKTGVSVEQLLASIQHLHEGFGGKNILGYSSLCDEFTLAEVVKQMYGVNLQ
HCoV-229E Mpro, sequence (P0C6X1 2966-3267 limits assumed): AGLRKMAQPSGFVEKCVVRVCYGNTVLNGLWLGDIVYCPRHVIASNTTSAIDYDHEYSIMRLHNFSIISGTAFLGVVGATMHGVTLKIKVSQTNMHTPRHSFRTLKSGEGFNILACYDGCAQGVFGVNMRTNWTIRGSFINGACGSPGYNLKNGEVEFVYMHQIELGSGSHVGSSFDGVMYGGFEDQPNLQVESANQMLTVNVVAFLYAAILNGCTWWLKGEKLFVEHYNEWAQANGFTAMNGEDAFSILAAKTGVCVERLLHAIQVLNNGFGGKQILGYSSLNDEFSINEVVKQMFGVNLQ
MERS Mpro, sequence (K9N7C7 3248-3553 limits assumed): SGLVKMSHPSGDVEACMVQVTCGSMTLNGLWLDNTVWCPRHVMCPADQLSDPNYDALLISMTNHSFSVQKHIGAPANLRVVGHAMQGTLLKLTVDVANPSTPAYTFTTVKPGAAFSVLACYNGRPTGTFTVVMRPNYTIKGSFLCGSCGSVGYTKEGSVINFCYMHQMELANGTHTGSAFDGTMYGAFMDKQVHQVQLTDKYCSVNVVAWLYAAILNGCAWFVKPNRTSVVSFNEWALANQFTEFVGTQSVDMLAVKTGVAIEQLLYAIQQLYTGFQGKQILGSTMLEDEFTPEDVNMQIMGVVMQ
HCoV-OC43 Mpro, sequence (P0C6X6 3247-3549 limits assumed): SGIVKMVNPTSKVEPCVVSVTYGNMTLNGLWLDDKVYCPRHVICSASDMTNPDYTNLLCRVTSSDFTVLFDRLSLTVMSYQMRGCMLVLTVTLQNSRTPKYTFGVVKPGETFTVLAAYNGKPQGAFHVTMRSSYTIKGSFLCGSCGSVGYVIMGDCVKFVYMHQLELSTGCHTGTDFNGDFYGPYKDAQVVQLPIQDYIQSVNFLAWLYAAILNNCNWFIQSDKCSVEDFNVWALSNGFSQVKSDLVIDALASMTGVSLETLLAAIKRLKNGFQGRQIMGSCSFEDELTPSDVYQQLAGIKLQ

| Structure (SMILES) | IC50 (HCoV-OC43 Mpro) [µM] | IC50 (SARS-CoV-1 Mpro) [µM] | IC50 (MERS Mpro) [µM] | IC50 (SARS-CoV-2 Mpro) [µM] | IC50 (HCoV-NL63 Mpro) [µM] | IC50 (HCoV-229E Mpro) [µM] | IC50 (HCoV-HKU1 Mpro) [µM] | IC50 (SARS-CoV-2 Mpro; [1]) [µM] |
| --- | --- | --- | --- | --- | --- | --- | --- | --- |
| CC1(C)[C@@H]2[C@@H](C(=O)N[C@H](C=O)C[C@@H]3CCNC3=O)N(C(=O)CC3CCC(F)(F)CC3)C[C@@H]21 [Compound 16, (1R,2S,5S)-3-(2-(4,4-difluorocyclohexyl)acetyl)-6,6-dimethyl-N—((S)-1-oxo-3-((S)-2-oxopyrrolidin-3-yl)propan-2-yl)-3-azabicyclo[3.1.0]hexane-2-carboxamide] | 0.0305 | 0.0235 | 0.157 | 0.0146 | 0.0289 | 0.0249 | 0.0125 |  |
| CC1(C)[C@@H]2[C@@H](C(=O)N[C@H](C=O)C[C@@H]3CCNC3=O)N(C(=O)C3(c4ccccc4)CC3)C[C@@H]21 [Compound 1, (1R,2S,5S)-6,6-dimethyl-N—((S)-1-oxo-3-((S)-2-oxopyrrolidin-3-yl)propan-2-yl)-3-(1-phenylcyclopropanecarbonyl)-3-azabicyclo[3.1.0]hexane-2-carboxamide] | 0.0284 | 0.0173 | 0.129 | 0.00953 | 0.0737 | 0.0324 | 0.0114 |  |
| O=C[C@H](C[C@@H]1CCNC1=O)NC(=O)[C@@H]1CCCN1C(=O)c1cc2ccccc2[nH]1 [Compound 138] | 0.317 | 0.691 | 1.73 |  | 0.417 | 0.208 | 0.227 | 0.499 |
| CC1(C)[C@@H]2[C@@H](C(=O)N[C@H](C=O)C[C@@H]3CCNC3=O)N(C(=O)c3cc4sccc4[nH]3)C[C@@H]21 [Compound 30, (1R,2S,5S)-6,6-dimethyl-N—((S)-1-oxo-3-((S)-2-oxopyrrolidin-3-yl)propan-2-yl)-3-(4H-thieno[3,2-b]pyrrole-5-carbonyl)-3-azabicyclo[3.1.0]hexane-2-carboxamide] | 0.0438 | 0.0511 | 0.239 | 0.0186 | 0.0497 | 0.0245 | 0.026 |  |
| Cc1cccc2c1cc(C(=O)N1C[C@H]3[C@@H]([C@H]1C(=O)N[C@H](C=O)C[C@@H]1CCNC1=O)C3(C)C)n2C [Compound 118, (1R,2S,5S)-3-(1,4-Dimethylindole-2-carbonyl)-N-[(1S)-1-formyl-2-[(3S)-2-oxopyrrolidin-3-yl]ethyl]-6,6-dimethyl-3-azabicyclo[3.1.0]hexane-2-carboxamide] | 0.436 | 0.349 | 3.29 | 0.127 | 1.78 | 0.325 | 0.324 |  |
| CC1(C)[C@@H]2[C@@H](C(=O)N[C@H](C=O)C[C@@H]3CCNC3=O)N(C(=O)c3cc4cccc(C(F)(F)F)c4[nH]3)C[C@@H]21 [Compound 29, (1R,2S,5S)-6,6-dimethyl-N—((S)-1-oxo-3-((S)-2-oxopyrrolidin-3-yl)propan-2-yl)-3-(7-(trifluoromethyl)-1H-indole-2-carbonyl)-3-azabicyclo[3.1.0]hexane-2-carboxamide] | 0.087 | 0.0352 | 0.296 | 0.0183 | 0.0939 | 0.0474 | 0.0535 |  |
| CC1(C)[C@@H]2[C@@H](C(=O)N[C@H](C=O)C[C@@H]3CCNC3=O)N(C(=O)c3cc4ccc(C#N)cc4[nH]3)C[C@@H]21 [Compound 74, (1R,2S,5S)-3-(6-Cyano-1H-indole-2-carbonyl)-6,6-dimethyl-N—((S)-1-oxo-3-((S)-2-oxopyrrolidin-3-yl)propan-2-yl)-3-azabicyclo[3.1.0]hexane-2-carboxamide] | 0.0864 | 0.0614 | 0.479 | 0.032 | 0.0868 | 0.0553 | 0.0409 |  |
| CC1(C)[C@@H]2[C@@H](C(=O)N[C@H](C=O)C[C@@H]3CCNC3=O)N(C(=O)c3cc4c(F)ccc(F)c4[nH]3)C[C@@H]21 [Compound 13, (1R,2S,5S)-3-(4,7-difluoro-1H-indole-2-carbonyl)-6,6-dimethyl-N—((S)-1-oxo-3-((S)-2-oxopyrrolidin-3-yl)propan-2-yl)-3-azabicyclo[3.1.0]hexane-2-carboxamide] | 0.069 | 0.0377 | 0.372 | 0.014 | 0.0763 | 0.0481 | 0.0382 |  |
| CC(C)(C)CC(=O)N1C[C@H]2[C@@H]([C@H]1C(=O)N[C@H](C=O)C[C@@H]1CCNC1=O)C2(C)C [Compound 95, (1R,2S,5S)-3-(3,3-Dimethylbutanoyl)-6,6-dimethyl-N—((S)-1-oxo-3-((S)-2-oxopyrrolidin-3-yl)propan-2-yl)-3-azabicyclo[3.1.0]hexane-2-carboxamide] | 0.124 | 0.1 | 0.413 |  | 0.189 | 0.0675 | 0.0644 | 0.0455 |
| COc1cccc2[nH]c(C(=O)N3C[C@H]4[C@@H]([C@H]3C(=O)N[C@H](C=O)C[C@@H]3CCNC3=O)C4(C)C)cc12 [Compound 65, (1R,2S,5S)-3-(4-Methoxy-1H-indole-2-carbonyl)-6,6-dimethyl-N—((S)-1-oxo-3-((S)-2-oxopyrrolidin-3-yl)propan-2-yl)-3-azabicyclo[3.1.0]hexane-2-carboxamide] | 0.0252 | 0.0331 | 0.32 |  | 0.0241 | 0.038 | 0.0211 | 0.027 |
| CO[C@@H]1C[C@@H](C(=O)N[C@H](C=O)C[C@@H]2CCNC2=O)N(C(=O)c2cc3ccccc3[nH]2)C1 [Compound 121, (2S,4R)-1-(1H-Indole-2-carbonyl)-4-methoxy-N—((S)-1-oxo-3-((S)-2-oxopyrrolidin-3-yl)propan-2-yl)pyrrolidine-2-carboxamide] | 0.825 | 0.294 | 2.63 | 0.159 | 0.198 | 0.152 | 0.546 |  |
| CC1(C)[C@@H]2[C@@H](C(=O)N[C@H](C=O)C[C@@H]3CCCNC3=O)N(C(=O)c3cc4ccccc4[nH]3)C[C@@H]21 [Compound 11, (1R,2S,5S)-3-(1H-indole-2-carbonyl)-6,6-dimethyl-N—((S)-1-oxo-3-((S)-2-oxopiperidin-3-yl)propan-2-yl)-3-azabicyclo[3.1.0]hexane-2-carboxamide] | 0.0341 | 0.0384 | 0.23 | 0.0132 | 0.0506 | 0.0372 | 0.04 |  |
| O=C[C@H](C[C@@H]1CCNC1=O)NC(=O)[C@@H]1C[C@@H]2CCCC[C@@H]2N1C(=O)c1cc2ccccc2[nH]1 [Compound 113, (2S,3aS,7aS)-1-(1H-Indole-2-carbonyl)-N—((S)-1-oxo-3-((S)-2-oxopyrrolidin-3-yl)propan-2-yl)octahydro-1H-indole-2-carboxamide] | 0.0793 | 0.339 | 0.581 | 0.0916 | 0.0357 | 0.0332 | 0.0284 |  |
| CC1(C)[C@@H]2[C@@H](C(=O)N[C@H](C#N)C[C@@H]3CCNC3=O)N(C(=O)C3(c4ccccc4)CC3)C[C@@H]21 [Compound 135, (1R,2S,5S)—N—((S)-1-Cyano-2-((S)-2-oxopyrrolidin-3-yl)ethyl)-6,6-dimethyl-3-(1-phenylcyclopropanecarbonyl)-3-azabicyclo[3.1.0]hexane-2-carboxamide] | 1.87 | 0.571 | 4.54 | 0.468 | 11.8 | 3.46 | 0.766 |  |
| CC1(C)[C@@H]2[C@@H](C(=O)N[C@H](C=O)C[C@@H]3CCNC3=O)N(C(=O)c3cc4c(Cl)cc(Cl)cc4[nH]3)C[C@@H]21 [Compound 97, (1R,2S,5S)-3-(4,6-Dichloro-1H-indole-2-carbonyl)-6,6-dimethyl-N—((S)-1-oxo-3-((S)-2-oxopyrrolidin-3-yl)propan-2-yl)-3-azabicyclo[3.1.0]hexane-2-carboxamide] | 0.072 | 0.0754 | 0.395 | 0.0499 | 0.0889 | 0.046 | 0.027 |  |
| O=C[C@H](C[C@@H]1CCNC1=O)NC(=O)[C@@H]1C[C@@H](C2CCCCC2)CN1C(=O)c1cc2c(F)cccc2[nH]1 [Compound 38, (2S,4S)-4-Cyclohexyl-1-(4-fluoro-1H-indole-2-carbonyl)-N—((S)-1-oxo-3-((S)-2-oxopyrrolidin-3-yl)propan-2-yl)pyrrolidine-2-carboxamide] | 0.046 | 0.097 | 0.516 | 0.021 | 0.1 | 0.0416 | 0.016 |  |
| CC1(C)[C@@H]2[C@@H](C(=O)N[C@H](C=O)C[C@@H]3CCNC3=O)N(C(=O)Cc3ccccc3)C[C@@H]21 [Compound 23, (1R,2S,5S)-6,6-dimethyl-N—((S)-1-oxo-3-((S)-2-oxopyrrolidin-3-yl)propan-2-yl)-3-(2-phenylacetyl)-3-azabicyclo[3.1.0]hexane-2-carboxamide] | 0.0305 | 0.0233 | 0.126 |  | 0.0497 | 0.0338 | 0.0226 | 0.0158 |
